Laboratory results as given in PubChem BioAssay (NCI).
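Tested at 5 concentrations; 48 h exposure; 96-well plates; endpoints linearly interpolated, else capped at highest concentration. The concentration for 50% growth inhibition is given as GI50. TGI: total growth inhibition.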

Assays:
Assay in all cases: NCI-60 cell line screen, 48 h
HCC-2998 colon = system: HCC-2998 colon
786-0 renal = system: 786-0 renal
HT29 colon = system: HT29 colon
UACC-257 melanoma = system: UACC-257 melanoma
IGROV1 ovarian = system: IGROV1 ovarian
OVCAR-8 ovarian = system: OVCAR-8 ovarian
A549 NSCLC = system: A549 NSCLC
RPMI-8226 leukemia = system: RPMI-8226 leukemia
HCT-116 colon = system: HCT-116 colon
MALME-3M melanoma = system: MALME-3M melanoma
MDA-MB-435 = system: MDA-MB-435
UACC-62 melanoma = system: UACC-62 melanoma
K-562 leukemia = system: K-562 leukemia
SNB-75 CNS = system: SNB-75 CNS
NCI-H23 lung = system: NCI-H23 lung
DU-145 prostate = system: DU-145 prostate
RXF 393 renal = system: RXF 393 renal
HCT-15 colon = system: HCT-15 colon
OVCAR-4 ovarian = system: OVCAR-4 ovarian
HS 578T breast = system: HS 578T breast
OVCAR-5 ovarian = system: OVCAR-5 ovarian
NCI-H460 lung = system: NCI-H460 lung
NCI-H522 lung = system: NCI-H522 lung
LOX IMVI melanoma = system: LOX IMVI melanoma
A498 renal = system: A498 renal
U251 CNS = system: U251 CNS
SF-268 CNS = system: SF-268 CNS
HL-60(TB) leukemia = system: HL-60(TB) leukemia
T-47D breast = system: T-47D breast
MDA-MB-231 breast = system: MDA-MB-231 breast
SK-MEL-28 melanoma = system: SK-MEL-28 melanoma
BT-549 breast = system: BT-549 breast
ACHN renal = system: ACHN renal
NCI/ADR-RES ovarian = system: NCI/ADR-RES ovarian
MOLT-4 leukemia = system: MOLT-4 leukemia
CCRF-CEM leukemia = system: CCRF-CEM leukemia
SF-295 CNS = system: SF-295 CNS
SK-MEL-5 melanoma = system: SK-MEL-5 melanoma
EKVX NSCLC = system: EKVX NSCLC
SR leukemia = system: SR leukemia
OVCAR-3 ovarian = system: OVCAR-3 ovarian
M14 melanoma = system: M14 melanoma
SW-620 colon = system: SW-620 colon
SK-MEL-2 melanoma = system: SK-MEL-2 melanoma
CAKI-1 renal = system: CAKI-1 renal
MCF7 breast = system: MCF7 breast
SK-OV-3 ovarian = system: SK-OV-3 ovarian
TK-10 renal = system: TK-10 renal
KM12 colon = system: KM12 colon
HOP-92 NSCLC = system: HOP-92 NSCLC
SN12C renal = system: SN12C renal
COLO 205 colon = system: COLO 205 colon
PC-3 prostate = system: PC-3 prostate
UO-31 renal = system: UO-31 renal
NCI-H226 lung = system: NCI-H226 lung
SNB-19 CNS = system: SNB-19 CNS
SF-539 CNS = system: SF-539 CNS
HOP-62 NSCLC = system: HOP-62 NSCLC

## C(#Cc1ccccc1C#Cc1ccccn1)c1ccc(OCCCCCCOc2ccc(C#Cc3ccccc3C#Cc3ccccn3)cc2)cc1
HCC-2998 colon
  GI50: 6.83 µM
  TGI: 13.3 µM
786-0 renal
  GI50: 5.55 µM
  TGI: 28.8 µM
HT29 colon
  GI50: 8.16 µM
  TGI: 14.9 µM
UACC-257 melanoma
  GI50: 5.92 µM
  TGI: 12.7 µM
IGROV1 ovarian
  GI50: 5.63 µM
  TGI: 17.2 µM
OVCAR-8 ovarian
  GI50: 4.16 µM
  TGI: 14.6 µM
A549 NSCLC
  GI50: 5.72 µM
  TGI: 13.8 µM
RPMI-8226 leukemia
  GI50: 0.387 µM
  TGI: 10.1 µM
HCT-116 colon
  GI50: 6.83 µM
  TGI: 15.9 µM
MALME-3M melanoma
  GI50: 7.76 µM
  TGI: 16.3 µM
MDA-MB-435
  GI50: 1.69 µM
  TGI: 9.71 µM
UACC-62 melanoma
  GI50: 0.35 µM
  TGI: 5.46 µM
K-562 leukemia
  GI50: 1.81 µM
  TGI: 18.5 µM
SNB-75 CNS
  GI50: 5.26 µM
  TGI: 13.8 µM
NCI-H23 lung
  GI50: 6.45 µM
  TGI: 16.2 µM
DU-145 prostate
  GI50: 6.36 µM
  TGI: 13 µM
RXF 393 renal
  GI50: 6.91 µM
  TGI: 13.6 µM
HCT-15 colon
  GI50: 1.76 µM
  TGI: 9.37 µM
OVCAR-4 ovarian
  GI50: 2.7 µM
  TGI: 11.5 µM
HS 578T breast
  GI50: 5.79 µM
  TGI: 15.7 µM
OVCAR-5 ovarian
  GI50: 5.93 µM
  TGI: 13.8 µM
NCI-H460 lung
  GI50: 1.62 µM
  TGI: 6.65 µM
NCI-H522 lung
  GI50: 2.55 µM
  TGI: 13.1 µM
LOX IMVI melanoma
  GI50: 0.229 µM
  TGI: 5.71 µM
A498 renal
  GI50: 5.93 µM
  TGI: 12.1 µM
U251 CNS
  GI50: 4.55 µM
  TGI: 10.9 µM
SF-268 CNS
  GI50: 2.52 µM
  TGI: 10.8 µM
HL-60(TB) leukemia
  GI50: 0.108 µM
  TGI: 1.44 µM
T-47D breast
  GI50: 1.52 µM
  TGI: 14.1 µM
MDA-MB-231 breast
  GI50: 2.47 µM
  TGI: 9.64 µM
SK-MEL-28 melanoma
  GI50: 6.18 µM
  TGI: 12.4 µM
BT-549 breast
  GI50: 4.39 µM
  TGI: 12.1 µM
ACHN renal
  GI50: 1.2 µM
  TGI: 7.95 µM
NCI/ADR-RES ovarian
  GI50: 2.43 µM
  TGI: 18.3 µM
MOLT-4 leukemia
  GI50: 0.225 µM
  TGI: 5.41 µM
CCRF-CEM leukemia
  GI50: 0.0276 µM
  TGI: 0.151 µM
SF-295 CNS
  GI50: 1.32 µM
  TGI: 5.08 µM
SK-MEL-5 melanoma
  GI50: 1.73 µM
  TGI: 7.26 µM
EKVX NSCLC
  GI50: 5.09 µM
  TGI: 22.9 µM
SR leukemia
  GI50: 2.45 µM
  TGI: 19.4 µM
OVCAR-3 ovarian
  GI50: 2.31 µM
  TGI: 9.16 µM
M14 melanoma
  GI50: 7.47 µM
  TGI: 17.6 µM
SW-620 colon
  GI50: 4.51 µM
  TGI: 10.6 µM
SK-MEL-2 melanoma
  GI50: 1.87 µM
  TGI: 11.1 µM
CAKI-1 renal
  GI50: 5.05 µM
  TGI: 12 µM
MCF7 breast
  GI50: 1.62 µM
  TGI: 8.29 µM
SK-OV-3 ovarian
  GI50: 7.87 µM
  TGI: 20.1 µM
TK-10 renal
  GI50: 5.33 µM
  TGI: 15.8 µM
KM12 colon
  GI50: 1.65 µM
  TGI: 8.34 µM
HOP-92 NSCLC
  GI50: 4.91 µM
  TGI: 12 µM
SN12C renal
  GI50: 2.35 µM
  TGI: 11.6 µM
COLO 205 colon
  GI50: 8.35 µM
  TGI: 15.6 µM
PC-3 prostate
  GI50: 5.18 µM
  TGI: 14 µM
UO-31 renal
  GI50: 2.02 µM
  TGI: 21.4 µM
NCI-H226 lung
  GI50: 4.33 µM
  TGI: 13.3 µM
SNB-19 CNS
  GI50: 4.39 µM
  TGI: 11.4 µM
SF-539 CNS
  GI50: 1.76 µM
  TGI: 7.63 µM
HOP-62 NSCLC
  GI50: 6.51 µM
  TGI: 14.6 µM
